{"source": "paper PMC3058180", "about": "(Journal of pharmaceutical sciences, 2010)", "tested_on": "A/Wuhan/359/95 E119V (oseltamivir-resistant)", "assay_type": "cell-based, influenza A virus", "conditions": "read-out: IC50 (nM of Zanamivir)", "data": [{"smiles": "CC(=O)N[C@H]1[C@H]([C@H](O)[C@H](O)CO)OC(C(=O)O)=C[C@@H]1N=C(N)N", "note": "[compound 1, Zanamivir]", "values": [{"measurement": "IC50", "value": 48000, "unit": "nM"}]}]}
